From PubChem BioAssay AID1963841 (Molecular Pharmacology Branch, DTP, NCI, 2024)

Test system: 439559-082-T-J2-PDC spheroid viability
Experiment: Anticancer human tumor 439559-082-T-J2-PDC patient-derived colon adenocarcinoma cell line growth inhibition [POLQ]
Conditions: spheroids with HUVEC and MSC; for IC50: curve of first compound; for viability, T/C: stronger effect = lower value
Outline: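 PDC + HUVEC + MSC complex spheroids; POLQ inhibitors ± partner drugs; top conc. at/near clinical Cmax, else 10 microM (SN-38 1 microM), half-log dilutions; 37 degrees C, 5% CO2.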

[1] = second compound 0.0316 µM, first compound 0.0316 µM
[2] = second compound 0.0316 µM, first compound 0.1 µM
[3] = second compound 0.1 µM, first compound 0.0316 µM
[4] = second compound 0.1 µM, first compound 0.1 µM
[5] = second compound 0.316 µM, first compound 0.0316 µM
[6] = second compound 0.316 µM, first compound 0.1 µM
[7] = second compound 1 µM, first compound 0.0316 µM
[8] = second compound 1 µM, first compound 0.1 µM
[9] = second compound 3.16 µM, first compound 0.0316 µM
[10] = second compound 3.16 µM, first compound 0.1 µM
[11] = second compound 10 µM, first compound 0.0316 µM
[12] = second compound 10 µM, first compound 0.1 µM
[13] = second compound 0.0316 µM, first compound 0.316 µM
[14] = second compound 0.0316 µM, first compound 1 µM
[15] = second compound 0.0316 µM, first compound 3.16 µM
[16] = second compound 0.0316 µM, first compound 10 µM
[17] = second compound 0.1 µM, first compound 0.316 µM
[18] = second compound 0.1 µM, first compound 1 µM
[19] = second compound 0.1 µM, first compound 3.16 µM
[20] = second compound 0.1 µM, first compound 10 µM
[21] = second compound 0.316 µM, first compound 0.316 µM
[22] = second compound 0.316 µM, first compound 1 µM
[23] = second compound 0.316 µM, first compound 3.16 µM
[24] = second compound 0.316 µM, first compound 10 µM
[25] = second compound 1 µM, first compound 0.316 µM
[26] = second compound 1 µM, first compound 1 µM
[27] = second compound 1 µM, first compound 3.16 µM
[28] = second compound 1 µM, first compound 10 µM
[29] = second compound 3.16 µM, first compound 0.316 µM
[30] = second compound 3.16 µM, first compound 1 µM
[31] = second compound 3.16 µM, first compound 3.16 µM
[32] = second compound 3.16 µM, first compound 10 µM
[33] = second compound 10 µM, first compound 0.316 µM
[34] = second compound 10 µM, first compound 1 µM
[35] = second compound 10 µM, first compound 3.16 µM
[36] = second compound 10 µM, first compound 10 µM
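Also: spheroids exposed to compounds for seven days before readout.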
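For viability, T/C in this document: 100% = DMSO vehicle control viability.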

CC[C@@]1(O)C(=O)OCc2c1cc1n(c2=O)Cc2cc3c(CN(C)C)c(O)ccc3nc2-1 + Nc1ccc(C#CCN(C(=O)Cc2ncc(C(F)(F)F)cc2C(F)(F)F)c2ccc(F)cc2)nn1
IC50 (second compound 0.0316 µM): > 0.1 µM
IC50 (second compound 0.1 µM): > 0.1 µM
IC50 (second compound 0.316 µM): > 0.1 µM
IC50 (second compound 1 µM): > 0.1 µM
IC50 (second compound 3.16 µM): > 0.1 µM
IC50 (second compound 10 µM): > 0.1 µM
viability, T/C (second compound 0.0316 µM, first compound 0.000316 µM): 104%
viability, T/C (second compound 0.0316 µM, first compound 0.001 µM): 97%
viability, T/C (second compound 0.0316 µM, first compound 0.00316 µM): 81.4%
viability, T/C (second compound 0.0316 µM, first compound 0.01 µM): 108%
viability, T/C [1]: 85.8%
viability, T/C [2]: 82.8%
viability, T/C (second compound 0.1 µM, first compound 0.000316 µM): 107%
viability, T/C (second compound 0.1 µM, first compound 0.001 µM): 103%
viability, T/C (second compound 0.1 µM, first compound 0.00316 µM): 96.3%
viability, T/C (second compound 0.1 µM, first compound 0.01 µM): 105%
viability, T/C [3]: 85.9%
viability, T/C [4]: 76.3%
viability, T/C (second compound 0.316 µM, first compound 0.000316 µM): 108%
viability, T/C (second compound 0.316 µM, first compound 0.001 µM): 110%
viability, T/C (second compound 0.316 µM, first compound 0.00316 µM): 101%
viability, T/C (second compound 0.316 µM, first compound 0.01 µM): 104%
viability, T/C [5]: 93.6%
viability, T/C [6]: 79%
viability, T/C (second compound 1 µM, first compound 0.000316 µM): 86.7%
viability, T/C (second compound 1 µM, first compound 0.001 µM): 98.6%
viability, T/C (second compound 1 µM, first compound 0.00316 µM): 83.8%
viability, T/C (second compound 1 µM, first compound 0.01 µM): 97.9%
viability, T/C [7]: 88.7%
viability, T/C [8]: 75.4%
viability, T/C (second compound 3.16 µM, first compound 0.000316 µM): 114%
viability, T/C (second compound 3.16 µM, first compound 0.001 µM): 113%
viability, T/C (second compound 3.16 µM, first compound 0.00316 µM): 92%
viability, T/C (second compound 3.16 µM, first compound 0.01 µM): 88.4%
viability, T/C [9]: 88%
viability, T/C [10]: 89.9%
viability, T/C (second compound 10 µM, first compound 0.000316 µM): 91.8%
viability, T/C (second compound 10 µM, first compound 0.001 µM): 94.8%
viability, T/C (second compound 10 µM, first compound 0.00316 µM): 87.9%
viability, T/C (second compound 10 µM, first compound 0.01 µM): 90.2%
viability, T/C [11]: 86%
viability, T/C [12]: 75.9%

C#Cc1c(F)ccc2cc(O)cc(-c3ncc4c(N5CC6CCC(C5)N6)nc(OCC56CCCN5CC(F)C6)nc4c3F)c12 (stereo not given) + Nc1ccc(C#CCN(C(=O)Cc2ncc(C(F)(F)F)cc2C(F)(F)F)c2ccc(F)cc2)nn1
IC50 (second compound 0.0316 µM): > 10 µM
IC50 (second compound 0.1 µM): > 10 µM
IC50 (second compound 0.316 µM): > 10 µM
IC50 (second compound 1 µM): > 10 µM
IC50 (second compound 3.16 µM): > 10 µM
IC50 (second compound 10 µM): > 10 µM
viability, T/C [1]: 94.9%
viability, T/C [2]: 84.2%
viability, T/C [13]: 71.5%
viability, T/C [14]: 73.7%
viability, T/C [15]: 71.1%
viability, T/C [16]: 70.2%
viability, T/C [3]: 103%
viability, T/C [4]: 77.3%
viability, T/C [17]: 68%
viability, T/C [18]: 82%
viability, T/C [19]: 74.5%
viability, T/C [20]: 54.6%
viability, T/C [5]: 81.3%
viability, T/C [6]: 87.2%
viability, T/C [21]: 71.9%
viability, T/C [22]: 69.9%
viability, T/C [23]: 70.6%
viability, T/C [24]: 64.9%
viability, T/C [7]: 105%
viability, T/C [8]: 82.7%
viability, T/C [25]: 62.3%
viability, T/C [26]: 60.9%
viability, T/C [27]: 75.2%
viability, T/C [28]: 65%
viability, T/C [9]: 79.9%
viability, T/C [10]: 84%
viability, T/C [29]: 68.4%
viability, T/C [30]: 59.1%
viability, T/C [31]: 60.4%
viability, T/C [32]: 62.7%
viability, T/C [11]: 92.7%
viability, T/C [12]: 76.9%
viability, T/C [33]: 76.5%
viability, T/C [34]: 72%
viability, T/C [35]: 65.2%
viability, T/C [36]: 66.4%

CC(C)n1c(=O)n(C)c2cnc3cc(F)c(-c4ccc(OCCCN5CCCCC5)nc4)cc3c21 + Cc1cccc(N(C)C(=O)C2C(O)CCN2c2nc(C)cc(C(F)(F)F)c2C#N)c1
IC50 (second compound 0.0316 µM): > 10 µM
IC50 (second compound 0.1 µM): > 10 µM
IC50 (second compound 0.316 µM): > 10 µM
IC50 (second compound 1 µM): > 10 µM
IC50 (second compound 3.16 µM): > 10 µM
IC50 (second compound 10 µM): > 10 µM
viability, T/C [1]: 103%
viability, T/C [2]: 106%
viability, T/C [13]: 109%
viability, T/C [14]: 116%
viability, T/C [15]: 99.8%
viability, T/C [16]: 93.9%
viability, T/C [3]: 115%
viability, T/C [4]: 105%
viability, T/C [17]: 107%
viability, T/C [18]: 111%
viability, T/C [19]: 109%
viability, T/C [20]: 94%
viability, T/C [5]: 103%
viability, T/C [6]: 104%
viability, T/C [21]: 108%
viability, T/C [22]: 107%
viability, T/C [23]: 110%
viability, T/C [24]: 102%
viability, T/C [7]: 108%
viability, T/C [8]: 103%
viability, T/C [25]: 108%
viability, T/C [26]: 115%
viability, T/C [27]: 108%
viability, T/C [28]: 87.4%
viability, T/C [9]: 93.5%
viability, T/C [10]: 111%
viability, T/C [29]: 96.9%
viability, T/C [30]: 112%
viability, T/C [31]: 103%
viability, T/C [32]: 81.5%
viability, T/C [11]: 96.5%
viability, T/C [12]: 93.6%
viability, T/C [33]: 108%
viability, T/C [34]: 101%
viability, T/C [35]: 97.6%
viability, T/C [36]: 87.4%

CC1COCCN1c1cc(-c2ccnn2C)c2ccnc(-c3ccn[nH]3)c2n1 (stereo not given) + COC1C(OC(N)=O)C(O)C(Oc2ccc3c(O)c(NC(=O)c4ccc(O)c(CC=C(C)C)c4)c(=O)oc3c2C)OC1(C)C
IC50 (second compound 0.0316 µM): 0.257 µM
IC50 (second compound 0.1 µM): 0.299 µM
IC50 (second compound 0.316 µM): 0.353 µM
IC50 (second compound 1 µM): 0.274 µM
IC50 (second compound 3.16 µM): 0.276 µM
IC50 (second compound 10 µM): 0.298 µM
viability, T/C [1]: 85.6%
viability, T/C [2]: 66.5%
viability, T/C [13]: 44.7%
viability, T/C [14]: 42%
viability, T/C [15]: 23.3%
viability, T/C [16]: 37%
viability, T/C [3]: 82.8%
viability, T/C [4]: 75.4%
viability, T/C [17]: 47.4%
viability, T/C [18]: 41.3%
viability, T/C [19]: 27%
viability, T/C [20]: 38.9%
viability, T/C [5]: 92.5%
viability, T/C [6]: 77.4%
viability, T/C [21]: 49.5%
viability, T/C [22]: 43.1%
viability, T/C [23]: 25.2%
viability, T/C [24]: 39.4%
viability, T/C [7]: 92.1%
viability, T/C [8]: 75.2%
viability, T/C [25]: 44.9%
viability, T/C [26]: 41.9%
viability, T/C [27]: 24.2%
viability, T/C [28]: 39.7%
viability, T/C [9]: 94.3%
viability, T/C [10]: 72.1%
viability, T/C [29]: 45.1%
viability, T/C [30]: 42.4%
viability, T/C [31]: 25.2%
viability, T/C [32]: 37.7%
viability, T/C [11]: 88%
viability, T/C [12]: 78.5%
viability, T/C [33]: 46.4%
viability, T/C [34]: 42.9%
viability, T/C [35]: 25.4%
viability, T/C [36]: 37.2%

CCCS(=O)(=O)Nc1ccc(F)c(C(=O)c2c[nH]c3ncc(-c4ccc(Cl)cc4)cc23)c1F + COC1C(OC(N)=O)C(O)C(Oc2ccc3c(O)c(NC(=O)c4ccc(O)c(CC=C(C)C)c4)c(=O)oc3c2C)OC1(C)C
IC50 (second compound 0.0316 µM): > 10 µM
IC50 (second compound 0.1 µM): > 10 µM
IC50 (second compound 0.316 µM): > 10 µM
IC50 (second compound 1 µM): > 10 µM
IC50 (second compound 3.16 µM): > 10 µM
IC50 (second compound 10 µM): > 10 µM
viability, T/C [1]: 103%
viability, T/C [2]: 109%
viability, T/C [13]: 96.6%
viability, T/C [14]: 95.8%
viability, T/C [15]: 99.7%
viability, T/C [16]: 70%
viability, T/C [3]: 108%
viability, T/C [4]: 107%
viability, T/C [17]: 99.9%
viability, T/C [18]: 102%
viability, T/C [19]: 100%
viability, T/C [20]: 67.9%
viability, T/C [5]: 104%
viability, T/C [6]: 106%
viability, T/C [21]: 101%
viability, T/C [22]: 92.9%
viability, T/C [23]: 94.2%
viability, T/C [24]: 65.8%
viability, T/C [7]: 99.2%
viability, T/C [8]: 104%
viability, T/C [25]: 102%
viability, T/C [26]: 103%
viability, T/C [27]: 105%
viability, T/C [28]: 68.4%
viability, T/C [9]: 93.7%
viability, T/C [10]: 103%
viability, T/C [29]: 94.3%
viability, T/C [30]: 95.4%
viability, T/C [31]: 93.1%
viability, T/C [32]: 67.9%
viability, T/C [11]: 103%
viability, T/C [12]: 95.2%
viability, T/C [33]: 100%
viability, T/C [34]: 99.2%
viability, T/C [35]: 98.3%
viability, T/C [36]: 71.4%
